Experimental findings from ChEMBL document CHEMBL4673185 (RSC Med Chem, 2020) are described below.

Positions of bridges follow the written chain, without caps; N, C: chain ends. Non-standard residues stand in square brackets, D forms with d. Residues, ends and D or L forms follow the SMILES beside them. Gla = N[C@@H](CC(C(=O)O)C(=O)O)C(=O)O

Series [1] can be described thus: Half life in iv dosed Wistar rat serum measured after 2 to 20 mins by HPLC analysis. In kind it is ADME, organism-based. To be noted: time 2-20 min.
Series [2] concerns the target Insulin receptor (Homo sapiens, UniProt P06213). As to the kind of experiment: Activation of human IR-B expressed in mouse NIH3T3 cells assessed as increase in Akt phosphorylation at Ser473 residue incubated for 30 mins by HTRF method. The series is classed as cell-based. On the technique in general: Time-resolved FRET reads energy transfer from a long-lived donor to a nearby acceptor.

Series [3] has as its target Neurotensin receptor type 1 (Rattus norvegicus, UniProt P20789). In words: Agonist activity at rat NTR1 expressed in CHO cells assessed as effect on [3H] phosphoinositide accumulation using neurotensin (1 to 13 residues) as substrate by radioactive assay. In kind it is cell-based.
The nature of series [4]: Agonist activity at Zebra fish V2R expressed in African green monkey COS-1 cells assessed as increase in intracellular calcium response by FLIPR assay. The series is classed as cell-based. To be noted: Danio rerio.
A short description of series [5]: Agonist activity at Zebra fish V1a1R expressed in African green monkey COS-1 cells assessed as increase in intracellular calcium response by FLIPR assay. In kind it is cell-based. To be noted: Danio rerio. For orientation: Calcium flux is commonly read through the fluorescence of an indicator in the cells.
The target of series [6] is T1, Vasopressin V1b receptor (Homo sapiens, UniProt P47901).
T1 sequence (P47901 whole entry): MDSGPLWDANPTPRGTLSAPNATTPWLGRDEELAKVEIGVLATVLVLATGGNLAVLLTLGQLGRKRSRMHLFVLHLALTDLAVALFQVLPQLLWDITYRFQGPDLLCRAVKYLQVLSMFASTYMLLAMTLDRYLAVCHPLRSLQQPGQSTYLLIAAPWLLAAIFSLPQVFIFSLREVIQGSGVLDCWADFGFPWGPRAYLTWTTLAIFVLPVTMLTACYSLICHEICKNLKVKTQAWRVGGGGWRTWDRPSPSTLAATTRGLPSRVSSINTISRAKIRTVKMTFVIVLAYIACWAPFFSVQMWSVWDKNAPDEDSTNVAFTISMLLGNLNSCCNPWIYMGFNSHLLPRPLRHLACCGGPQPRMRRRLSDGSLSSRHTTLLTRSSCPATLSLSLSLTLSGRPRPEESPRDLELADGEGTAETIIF
As to the kind of experiment: Agonist activity at human V1bR expressed in African green monkey COS-1 cells assessed as increase in intracellular calcium response by FLIPR assay. The series is classed as functional, cell-based.

The target of series [7] is Mas-related G-protein coupled receptor member X1 (Homo sapiens, UniProt Q96LB2). As to the kind of experiment: Activation of human MrgprX1 expressed in BAM 8-22 activated-rat KNRK cells by fura2-AM dye based calcium imaging assay. In kind it is cell-based.
Sequence of Mas-related G-protein coupled receptor member X1 (Q96LB2 whole entry): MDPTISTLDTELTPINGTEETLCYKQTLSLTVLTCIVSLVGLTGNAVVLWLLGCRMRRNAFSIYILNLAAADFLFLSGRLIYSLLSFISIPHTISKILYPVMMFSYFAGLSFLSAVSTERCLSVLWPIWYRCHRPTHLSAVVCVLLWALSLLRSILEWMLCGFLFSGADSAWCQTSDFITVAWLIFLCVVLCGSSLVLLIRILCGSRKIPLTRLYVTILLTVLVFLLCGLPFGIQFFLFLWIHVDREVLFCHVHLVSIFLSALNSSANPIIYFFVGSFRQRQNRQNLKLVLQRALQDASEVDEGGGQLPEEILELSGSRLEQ

Sequence of Insulin receptor (P06213 28-758 limits assumed): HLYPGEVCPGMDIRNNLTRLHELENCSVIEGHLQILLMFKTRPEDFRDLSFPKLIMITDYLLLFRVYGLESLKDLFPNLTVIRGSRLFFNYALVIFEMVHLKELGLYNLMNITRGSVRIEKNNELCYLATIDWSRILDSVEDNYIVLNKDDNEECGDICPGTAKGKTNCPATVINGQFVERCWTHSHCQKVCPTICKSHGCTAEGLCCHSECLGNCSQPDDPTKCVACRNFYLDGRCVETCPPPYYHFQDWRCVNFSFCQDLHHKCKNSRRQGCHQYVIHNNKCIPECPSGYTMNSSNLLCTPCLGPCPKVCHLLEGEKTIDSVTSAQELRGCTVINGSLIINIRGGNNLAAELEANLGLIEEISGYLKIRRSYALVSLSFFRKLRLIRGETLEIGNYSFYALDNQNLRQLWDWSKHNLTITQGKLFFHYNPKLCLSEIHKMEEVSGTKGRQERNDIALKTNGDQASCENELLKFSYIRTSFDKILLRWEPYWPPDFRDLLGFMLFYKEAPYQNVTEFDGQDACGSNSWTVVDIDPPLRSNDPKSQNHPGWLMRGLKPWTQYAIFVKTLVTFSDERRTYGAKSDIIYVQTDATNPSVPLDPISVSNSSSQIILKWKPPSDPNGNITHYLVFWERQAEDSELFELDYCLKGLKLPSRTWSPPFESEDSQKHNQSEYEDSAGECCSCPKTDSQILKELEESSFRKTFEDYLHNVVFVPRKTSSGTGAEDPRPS
Sequence of Insulin receptor (P06213 763-1382 limits assumed): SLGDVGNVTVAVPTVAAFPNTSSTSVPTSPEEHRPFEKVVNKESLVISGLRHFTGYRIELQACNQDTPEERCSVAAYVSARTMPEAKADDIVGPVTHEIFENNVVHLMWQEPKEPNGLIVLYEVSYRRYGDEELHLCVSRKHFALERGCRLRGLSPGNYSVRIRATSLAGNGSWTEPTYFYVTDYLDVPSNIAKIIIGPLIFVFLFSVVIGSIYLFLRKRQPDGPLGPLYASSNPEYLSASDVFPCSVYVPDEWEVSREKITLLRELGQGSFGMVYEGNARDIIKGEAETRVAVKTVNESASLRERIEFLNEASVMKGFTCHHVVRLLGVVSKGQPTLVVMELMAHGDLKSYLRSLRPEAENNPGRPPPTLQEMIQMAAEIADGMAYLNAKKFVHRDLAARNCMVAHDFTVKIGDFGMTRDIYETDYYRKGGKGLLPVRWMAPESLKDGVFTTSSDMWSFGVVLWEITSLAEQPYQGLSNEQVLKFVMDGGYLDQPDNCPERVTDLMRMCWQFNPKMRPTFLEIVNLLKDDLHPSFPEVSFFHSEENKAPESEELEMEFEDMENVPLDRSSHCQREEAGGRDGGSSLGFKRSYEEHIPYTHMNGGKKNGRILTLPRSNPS
Sequence of Neurotensin receptor type 1 (P20789 whole entry, the tested form may be a part): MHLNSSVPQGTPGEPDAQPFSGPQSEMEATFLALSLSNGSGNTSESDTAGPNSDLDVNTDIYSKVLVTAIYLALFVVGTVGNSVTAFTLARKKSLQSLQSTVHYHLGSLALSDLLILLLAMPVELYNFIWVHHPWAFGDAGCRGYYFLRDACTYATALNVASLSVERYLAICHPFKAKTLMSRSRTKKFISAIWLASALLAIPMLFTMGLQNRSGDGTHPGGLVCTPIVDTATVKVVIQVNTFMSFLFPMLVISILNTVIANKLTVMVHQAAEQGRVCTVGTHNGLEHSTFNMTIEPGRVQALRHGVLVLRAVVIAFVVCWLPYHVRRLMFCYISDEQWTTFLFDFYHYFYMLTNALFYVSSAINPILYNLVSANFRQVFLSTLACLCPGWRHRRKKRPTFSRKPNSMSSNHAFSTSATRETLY

Take `CC[C@H](C)[C@H](NC(=O)[C@H](Cc1ccccc1)NC(=O)[C@H](CCC(=O)O)NC(=O)[C@H](CCCCN)NC(=O)[C@H](C)NC(=O)[C@H](C)NC(=O)[C@H](CCC(N)=O)NC(=O)CNC(=O)[C@H](CCC(=O)O)NC(=O)[C@H](CC(C)C)NC(=O)[C@H](Cc1ccc(O)cc1)NC(=O)[C@H](CO)NC(=O)[C@H](CO)NC(=O)[C@@H](NC(=O)[C@H](CC(=O)O)NC(=O)[C@H](CO)NC(=O)[C@@H](NC(=O)[C@H](Cc1ccccc1)NC(=O)[C@@H](NC(=O)CNC(=O)[C@H](CCC(=O)O)NC(=O)[C@H](C)NC(=O)[C@@H](N)Cc1cnc[nH]1)[C@@H](C)O)[C@@H](C)O)C(C)C)C(=O)N[C@@H](C)C(=O)N[C@@H](Cc1c[nH]c2ccccc12)C(=O)N[C@@H](CC(C)C)C(=O)N[C@H](C(=O)N[C@@H](CCCCN)C(=O)NCC(=O)N[C@@H](CCCNC(=N)N)C(=O)O)C(C)C`: the half-life (usually the time needed for the level to fall by half in the phase considered) in series [1] stood at 2 min.

Take `CC[C@H](C)[C@H](NC(=O)[C@H](CC(C)C)NC(=O)[C@@H](Cc1ccc(O)cc1)NC(=O)[C@H](CCC(N)=O)NC(=O)[C@H](CC(N)=O)NC(=O)[C@H](Cc1ccc(O)cc1)NC(=O)[C@H](CCC(N)=O)NC(=O)[C@H](CC(C)C)NC(=O)[C@@H](Cc1ccc(O)cc1)NC(=O)[C@@H](Cc1ccc(O)cc1)NC(=O)[C@H](CCC(=O)O)NC(=O)CN)C(=O)N[C@@H](CCCNC(=N)N)C(=O)N[C@H](Cc1ccc(O)cc1)C(=O)N[C@@H](CCCCN)C(=O)N[C@@H](CO)C(=O)N[C@@H](CC(N)=O)C(N)=O`: the EC50 – broadly, the concentration needed to bring the measured effect to its halfway point – in series [2] is 12 nM.

For `CC[C@H](C)[C@@H]1NC(=O)[C@H](Cc2ccc(O)cc2)NC(=O)[C@H](CO)NC(=O)[C@H](CC(N)=O)NC(=O)[C@@H]2CCCN2C(=O)[C@H]([C@@H](C)CC)NC(=O)[C@H](CC(C(=O)O)C(=O)O)NC(=O)[C@H](CO)NC(=O)CNC(=O)[C@@H]2CSSC[C@@H]3NC(=O)[C@@H](NC(=O)[C@H](Cc4cnc[nH]4)NC(=O)[C@H](CC(C(=O)O)C(=O)O)NC(=O)[C@@H](NC(=O)[C@@H](NC(=O)CN)C(C)C)C(C)C)CSSC[C@H](NC(=O)[C@@H]4CCCN4C(=O)[C@H](CCCNC(=N)N)NC(=O)[C@H](Cc4cnc[nH]4)NC3=O)C(=O)N[C@@H](CO)C(=O)N[C@@H](CC(N)=O)C(=O)N[C@@H](C)C(=O)N[C@@H](CCC(=O)O)C(=O)N[C@@H](Cc3ccccc3)C(=O)N[C@@H](CCCCN)C(=O)N[C@@H](CCCCN)C(=O)N[C@@H](Cc3ccccc3)C(=O)N[C@@H](CSSC[C@H](C(=O)N[C@@H](Cc3ccccc3)C(=O)O)NC(=O)[C@H](CC(C)C)NC(=O)[C@H](CC(=O)O)NC1=O)C(=O)N[C@@H](CC(N)=O)C(=O)N[C@@H](CO)C(=O)N[C@@H](CC(=O)O)C(=O)N[C@@H]([C@@H](C)O)C(=O)N1CC(O)C[C@H]1C(=O)N[C@@H](CCCCN)C(=O)N[C@@H](Cc1ccc(O)cc1)C(=O)N[C@@H](CCCNC(=N)N)C(=O)N2` (some centres undefined), the EC50 in series [2] stood at 12 nM.

`CC[C@H](C)[C@@H]1NC(=O)[C@H](CC(=O)O)NC(=O)[C@H](CO)NC(=O)CNC(=O)[C@@H]2CSSC[C@@H]3NC(=O)[C@@H](NC(=O)[C@H](Cc4cnc[nH]4)NC(=O)[C@H](CC(C(=O)O)C(=O)O)NC(=O)[C@@H](NC(=O)[C@@H](NC(=O)CN)C(C)C)C(C)C)CSSC[C@H](NC(=O)[C@@H]4CCCN4C(=O)[C@H](CCCNC(=N)N)NC(=O)[C@H](Cc4cnc[nH]4)NC3=O)C(=O)N[C@@H](CO)C(=O)N[C@@H](CC(N)=O)C(=O)N[C@@H](C)C(=O)N[C@@H](CCC(=O)O)C(=O)N[C@@H](Cc3ccccc3)C(=O)N[C@@H](CCCCN)C(=O)N[C@@H](CCCCN)C(=O)N[C@@H](Cc3ccccc3)C(=O)N[C@@H](CSSC[C@H](C(=O)N[C@@H](Cc3ccccc3)C(=O)O)NC(=O)[C@H](CC(C)C)NC(=O)[C@H](CC(=O)O)NC(=O)[C@H](CCSC)NC(=O)[C@H](Cc3ccc(O)cc3)NC(=O)[C@H](CO)NC(=O)[C@H](CC(N)=O)NC(=O)[C@@H]3CCCN3C1=O)C(=O)N[C@@H](CC(N)=O)C(=O)N[C@@H](CO)C(=O)N[C@@H](CC(=O)O)C(=O)N[C@@H]([C@@H](C)O)C(=O)N1CC(O)C[C@H]1C(=O)N[C@@H](CCCCN)C(=O)N[C@@H](Cc1ccc(O)cc1)C(=O)N[C@@H](CCCNC(=N)N)C(=O)N2` (some centres undefined): the EC50 in series [2] amounted to 12 nM.

Turning to `CC[C@H](C)[C@H](NC(=O)[C@H](CC(C)C)NC(=O)[C@@H](Cc1ccc(O)cc1)NC(=O)[C@H](CCC(N)=O)NC(=O)[C@H](CC(N)=O)NC(=O)[C@H](Cc1ccc(O)cc1)NC(=O)[C@H](CCC(N)=O)NC(=O)[C@H](CC(C)C)NC(=O)[C@@H](Cc1ccc(O)cc1)NC(=O)[C@@H](Cc1ccc(O)cc1)NC(=O)[C@H](CCC(=O)O)NC(=O)CN)C(=O)N[C@@H](CCCNC(=N)N)C(=O)N[C@H](Cc1ccc(O)cc1)C(=O)N[C@@H](CCCCN)C(=O)N[C@@H](CO)C(=O)N[C@@H](CC(N)=O)C(=O)O`, the EC50 in series [3] is 20 nM.

`CC(C)C[C@H](NC(=O)[C@H](Cc1ccccc1)NC(=O)[C@@H](N)CS)C(=O)NCC(=O)N[C@@H](CC(N)=O)C(=O)N[C@@H](CS)C(=O)N1CCC[C@H]1C(=O)N[C@@H](CC(=O)O)C(=O)N[C@@H](CO)C(N)=O` (H-CFLGNCPDS-NH2): the 50% effective concentration (EC50) in series [4] turned out to be 1000 nM.

On to `CC(C)C[C@H](NC(=O)[C@H](Cc1ccccc1)NC(=O)[C@@H](N)CS)C(=O)NCC(=O)N[C@@H](CC(N)=O)C(=O)N[C@@H](CS)C(=O)N1CCC[C@H]1C(=O)N[C@@H](CC(=O)O)C(=O)N[C@@H](CO)C(=O)O` (H-CFLGNCPDS-OH), for which the EC50 in series [4] came out at 1000 nM.

On to `NC(=O)C[C@H](NC(=O)CNC(=O)[C@@H]1CCCN1C(=O)[C@H](Cc1ccccc1)NC(=O)[C@@H](N)CS)C(=O)N[C@@H](CS)C(=O)N1CCC[C@H]1C(=O)N[C@@H](CC(=O)O)C(=O)N[C@@H](CO)C(N)=O` (H-CFPGNCPDS-NH2), for which the concentration for a half-maximal effect (EC50) in series [5] and in series [6] was 1000 nM throughout.

As for H-AWSGPRNRFVRF-OH, in series [7], the EC50 was 1800 nM.

“H-GIV[Gla]DCCYNDCTDEKLKEYCHTLQSDSGTTLVRRRLCGS[Gla]LVTYLGELCLGN-OH (disulfide 6-11, 7-37, 20-49)”: the EC50 in series [2] was 12 nM.

Take “H-GVV[Gla]HCCKRACSNA[Gla]FMQFCNSDTPWNRCGSQITDSYR[Gla]LCPH-OH (disulfide 6-11, 7-29, 20-41)”: in series [2], the EC50 stood at 12 nM.

With H-HSGFLLAWSGPRNRFVRF-OH, the EC50 in series [7] turned out to be 1800 nM.

H-HSGILLAWSGPRNRFVRI-OH: in series [7], the EC50 was determined as 500 nM.
